From the supplement of paper PMC6411743

Columns and labels:
[1] = compound: Nc1ncnc2c1ncn2[C@@H]1O[C@H](COP(=O)(O)OP(=O)(O)OP(=O)(O)O)[C@@H](O)[C@H]1O [adenosine triphosphate]; assay: pEC50 of ATP-induced change in protein thermal stability (2D-TPP)
Summary of the method: (§1)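 Each of three independent experiments used Jurkat crude lysate given five concentrations including vehicle (10 min, room temperature), followed by 3 min at one of 12 temperatures from 42 to 63.9 °C and NP40 with benzonase (60 min, 4 °C). TMT LC-MS/MS quantified soluble protein after ultracentrifugation, expressed as fold changes against vehicle at each temperature with median normalisation. For pEC50, dose-response curves were fitted per replicate over adjacent temperature pairs, and hits were called through permutation-based false discovery rate control.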

[2] = compound: Nc1nc2c(ncn2[C@@H]2O[C@H](COP(=O)(O)OP(=O)(O)OP(=O)(O)O)[C@@H](O)[C@H]2O)c(=O)[nH]1 [guanosine triphosphate]; assay: pEC50 of GTP-induced change in protein thermal stability (2D-TPP)
Summary of the method: as §1
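Wherever pEC50 of ATP-induced change in protein thermal stability (2D-TPP) is given: lysate dosed with Na-ATP at 0 0.005 0.05 0.5 and 2 mM.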

UniProt Q9Y230, sequence (Q9Y230 whole entry): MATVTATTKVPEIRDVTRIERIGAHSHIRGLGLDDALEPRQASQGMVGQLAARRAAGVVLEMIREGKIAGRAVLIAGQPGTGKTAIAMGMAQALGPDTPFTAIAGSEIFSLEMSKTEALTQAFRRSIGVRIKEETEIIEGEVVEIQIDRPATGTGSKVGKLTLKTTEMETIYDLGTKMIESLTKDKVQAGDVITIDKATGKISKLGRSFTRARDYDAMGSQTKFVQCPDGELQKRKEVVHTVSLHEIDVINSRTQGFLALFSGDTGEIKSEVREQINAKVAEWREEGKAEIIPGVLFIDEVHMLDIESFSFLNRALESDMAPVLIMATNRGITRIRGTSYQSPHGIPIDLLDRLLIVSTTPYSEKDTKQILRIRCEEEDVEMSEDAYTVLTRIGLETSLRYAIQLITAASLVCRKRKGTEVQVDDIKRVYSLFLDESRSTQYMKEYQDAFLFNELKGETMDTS
UniProt Q15382, sequence (Q15382 whole entry): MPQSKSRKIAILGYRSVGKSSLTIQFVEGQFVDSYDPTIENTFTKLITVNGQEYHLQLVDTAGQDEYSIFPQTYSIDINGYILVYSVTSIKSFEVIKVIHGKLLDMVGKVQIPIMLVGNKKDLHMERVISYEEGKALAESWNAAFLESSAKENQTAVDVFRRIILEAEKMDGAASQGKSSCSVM
UniProt Q6XQN6, sequence (Q6XQN6 whole entry): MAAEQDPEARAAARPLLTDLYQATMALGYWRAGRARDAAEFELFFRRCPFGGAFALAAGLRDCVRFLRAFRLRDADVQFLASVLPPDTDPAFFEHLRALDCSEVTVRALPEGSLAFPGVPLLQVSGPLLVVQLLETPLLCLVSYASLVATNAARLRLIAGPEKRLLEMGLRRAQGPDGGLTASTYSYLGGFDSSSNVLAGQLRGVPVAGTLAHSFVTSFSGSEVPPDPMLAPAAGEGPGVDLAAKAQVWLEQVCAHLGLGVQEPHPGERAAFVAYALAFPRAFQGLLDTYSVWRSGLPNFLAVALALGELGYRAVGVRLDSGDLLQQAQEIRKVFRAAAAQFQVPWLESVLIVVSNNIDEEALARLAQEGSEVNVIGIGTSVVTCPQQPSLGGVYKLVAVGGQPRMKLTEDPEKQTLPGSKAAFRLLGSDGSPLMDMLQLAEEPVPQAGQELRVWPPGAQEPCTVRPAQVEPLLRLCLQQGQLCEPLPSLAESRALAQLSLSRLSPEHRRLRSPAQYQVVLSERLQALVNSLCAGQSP
UniProt P68363, sequence (P68363 whole entry): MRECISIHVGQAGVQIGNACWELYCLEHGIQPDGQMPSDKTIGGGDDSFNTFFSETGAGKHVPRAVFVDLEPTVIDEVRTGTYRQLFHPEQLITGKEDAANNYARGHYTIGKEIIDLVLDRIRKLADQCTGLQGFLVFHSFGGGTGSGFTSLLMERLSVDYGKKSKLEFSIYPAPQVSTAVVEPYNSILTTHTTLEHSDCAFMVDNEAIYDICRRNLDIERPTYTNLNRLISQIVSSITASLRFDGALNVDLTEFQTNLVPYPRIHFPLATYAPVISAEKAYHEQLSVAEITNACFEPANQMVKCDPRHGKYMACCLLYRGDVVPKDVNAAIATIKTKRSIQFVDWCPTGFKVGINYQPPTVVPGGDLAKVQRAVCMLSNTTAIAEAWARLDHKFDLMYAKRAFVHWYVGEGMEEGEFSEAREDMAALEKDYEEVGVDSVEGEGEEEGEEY
UniProt Q6P9H5, sequence (Q6P9H5 whole entry): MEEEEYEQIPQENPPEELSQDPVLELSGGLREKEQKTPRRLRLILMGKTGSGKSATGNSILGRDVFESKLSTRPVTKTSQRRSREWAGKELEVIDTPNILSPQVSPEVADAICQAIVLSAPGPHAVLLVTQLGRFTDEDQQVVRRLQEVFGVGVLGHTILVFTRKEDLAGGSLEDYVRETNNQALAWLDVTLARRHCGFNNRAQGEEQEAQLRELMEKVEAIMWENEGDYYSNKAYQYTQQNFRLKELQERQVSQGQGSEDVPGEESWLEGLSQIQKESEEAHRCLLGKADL
UniProt Q92620, sequence (Q92620 whole entry): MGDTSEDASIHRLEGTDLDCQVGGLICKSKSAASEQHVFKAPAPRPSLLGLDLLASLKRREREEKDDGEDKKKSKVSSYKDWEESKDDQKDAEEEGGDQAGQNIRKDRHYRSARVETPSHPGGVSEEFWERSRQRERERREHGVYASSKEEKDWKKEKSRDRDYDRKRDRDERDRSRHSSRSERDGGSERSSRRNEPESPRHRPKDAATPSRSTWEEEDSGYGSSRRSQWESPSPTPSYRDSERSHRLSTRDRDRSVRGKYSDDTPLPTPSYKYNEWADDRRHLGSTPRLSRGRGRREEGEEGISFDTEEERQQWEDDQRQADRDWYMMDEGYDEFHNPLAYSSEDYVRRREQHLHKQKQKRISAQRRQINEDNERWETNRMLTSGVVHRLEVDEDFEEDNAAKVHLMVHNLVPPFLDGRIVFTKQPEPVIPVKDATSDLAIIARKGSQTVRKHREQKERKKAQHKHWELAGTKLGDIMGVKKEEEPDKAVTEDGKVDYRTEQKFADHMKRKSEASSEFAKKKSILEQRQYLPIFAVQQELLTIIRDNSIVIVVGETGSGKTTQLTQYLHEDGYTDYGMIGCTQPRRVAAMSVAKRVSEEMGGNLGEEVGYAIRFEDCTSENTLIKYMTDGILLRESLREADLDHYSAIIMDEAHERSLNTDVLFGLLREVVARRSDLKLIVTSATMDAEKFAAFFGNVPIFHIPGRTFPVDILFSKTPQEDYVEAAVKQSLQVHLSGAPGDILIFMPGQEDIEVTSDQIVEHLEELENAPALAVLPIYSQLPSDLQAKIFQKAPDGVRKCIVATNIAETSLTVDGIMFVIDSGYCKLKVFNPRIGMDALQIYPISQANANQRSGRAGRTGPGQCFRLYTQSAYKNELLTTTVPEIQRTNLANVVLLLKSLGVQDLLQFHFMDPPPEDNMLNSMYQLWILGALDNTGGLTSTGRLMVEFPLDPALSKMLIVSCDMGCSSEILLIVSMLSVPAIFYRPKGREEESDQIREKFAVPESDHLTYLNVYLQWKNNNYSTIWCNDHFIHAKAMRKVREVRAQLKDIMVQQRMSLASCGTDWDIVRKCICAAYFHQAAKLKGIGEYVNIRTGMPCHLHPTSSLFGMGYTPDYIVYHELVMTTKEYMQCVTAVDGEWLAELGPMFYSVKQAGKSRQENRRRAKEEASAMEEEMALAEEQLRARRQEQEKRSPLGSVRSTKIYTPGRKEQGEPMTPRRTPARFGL
UniProt O95861, sequence (O95861 whole entry): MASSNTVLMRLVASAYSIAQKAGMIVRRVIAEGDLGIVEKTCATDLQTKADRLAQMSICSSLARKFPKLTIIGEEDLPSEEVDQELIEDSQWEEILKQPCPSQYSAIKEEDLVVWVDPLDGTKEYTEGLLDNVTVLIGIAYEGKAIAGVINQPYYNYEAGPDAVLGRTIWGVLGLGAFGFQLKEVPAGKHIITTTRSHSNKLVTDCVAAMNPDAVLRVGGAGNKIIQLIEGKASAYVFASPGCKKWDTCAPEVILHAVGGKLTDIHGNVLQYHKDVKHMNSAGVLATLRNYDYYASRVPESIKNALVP
UniProt P16615, sequence (P16615 whole entry): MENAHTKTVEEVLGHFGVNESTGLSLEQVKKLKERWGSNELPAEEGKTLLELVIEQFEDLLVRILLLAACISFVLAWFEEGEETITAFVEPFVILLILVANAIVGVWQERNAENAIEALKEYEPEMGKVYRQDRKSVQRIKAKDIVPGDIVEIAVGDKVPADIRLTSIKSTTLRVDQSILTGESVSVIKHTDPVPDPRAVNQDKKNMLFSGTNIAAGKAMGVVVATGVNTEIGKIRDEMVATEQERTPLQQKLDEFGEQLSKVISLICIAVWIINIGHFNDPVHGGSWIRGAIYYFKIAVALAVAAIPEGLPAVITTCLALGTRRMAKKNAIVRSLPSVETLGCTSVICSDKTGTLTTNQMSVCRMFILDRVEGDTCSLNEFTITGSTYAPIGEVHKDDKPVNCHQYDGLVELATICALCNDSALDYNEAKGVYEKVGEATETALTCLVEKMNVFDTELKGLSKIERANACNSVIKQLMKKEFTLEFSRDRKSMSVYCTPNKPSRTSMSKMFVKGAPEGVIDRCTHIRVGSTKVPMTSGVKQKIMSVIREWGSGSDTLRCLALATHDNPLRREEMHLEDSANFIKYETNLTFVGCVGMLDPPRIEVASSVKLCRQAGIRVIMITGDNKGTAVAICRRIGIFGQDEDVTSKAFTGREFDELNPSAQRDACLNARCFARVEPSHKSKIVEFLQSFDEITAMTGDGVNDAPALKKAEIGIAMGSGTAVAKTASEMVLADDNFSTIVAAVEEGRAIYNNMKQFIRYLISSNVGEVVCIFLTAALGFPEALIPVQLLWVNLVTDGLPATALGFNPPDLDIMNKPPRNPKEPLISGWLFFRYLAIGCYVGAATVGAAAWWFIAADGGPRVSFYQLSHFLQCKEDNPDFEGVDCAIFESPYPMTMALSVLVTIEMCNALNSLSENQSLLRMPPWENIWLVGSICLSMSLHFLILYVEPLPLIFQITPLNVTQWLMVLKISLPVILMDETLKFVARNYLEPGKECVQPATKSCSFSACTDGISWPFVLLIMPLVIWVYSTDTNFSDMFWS
UniProt Q8WUD1, sequence (Q8WUD1 whole entry): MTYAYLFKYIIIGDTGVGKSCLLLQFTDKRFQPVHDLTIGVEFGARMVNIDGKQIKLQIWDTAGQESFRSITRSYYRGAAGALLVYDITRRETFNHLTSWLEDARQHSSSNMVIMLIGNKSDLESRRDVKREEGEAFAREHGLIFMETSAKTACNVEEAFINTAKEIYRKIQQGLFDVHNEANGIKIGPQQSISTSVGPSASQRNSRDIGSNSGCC
UniProt Q9BZX2, sequence (Q9BZX2 whole entry): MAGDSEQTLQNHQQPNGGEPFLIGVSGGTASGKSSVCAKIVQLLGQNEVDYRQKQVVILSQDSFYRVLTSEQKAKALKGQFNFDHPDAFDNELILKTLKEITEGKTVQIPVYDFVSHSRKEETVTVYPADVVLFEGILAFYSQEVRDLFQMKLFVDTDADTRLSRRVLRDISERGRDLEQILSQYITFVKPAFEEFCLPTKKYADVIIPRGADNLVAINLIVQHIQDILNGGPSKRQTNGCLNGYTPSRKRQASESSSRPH

| Target | pEC50 [1] | pEC50 [2] |
| --- | --- | --- |
| NEK7 (effect direction: stabilized) (UniProt Q8TDX7) | 4.02 | 4.11 |
| ILK (effect direction: stabilized) (UniProt Q13418) | 3.37 | 4.17 |
| CCT3 (effect direction: stabilized) (UniProt P49368) | 4.53 | 3.62 |
| CSK (effect direction: stabilized) (UniProt P41240) | 3.56 | 4.3 |
| CCDC117 (effect direction: stabilized) (UniProt Q8IWD4) | 3.47 | 3.46 |
| UniProt P08240 (effect direction: stabilized) | 4.01 | 3.81 |
| UniProt P59998 (effect direction: stabilized) | 3.9 | 4.03 |
| DYNC1LI2 (effect direction: stabilized) (UniProt O43237) | 3.69 | 4.16 |
| AUP1 (effect direction: stabilized) (UniProt Q9Y679) | 3.27 | 3.82 |
| GSPT1 (effect direction: stabilized) (UniProt P15170) | < 2.7 | 4.01 |
| ARL2 (effect direction: stabilized) (UniProt P36404) | 3.3 | 4.15 |
| ATP2A2 (effect direction: stabilized) (UniProt P16615) | 3.33 | 4.31 |
| ANP32B (effect direction: stabilized) (UniProt Q92688) | 2.89 | 3.75 |
| RAB21 (effect direction: stabilized) (UniProt Q9UL25) | 3.75 | 4.53 |
| CCT2 (effect direction: stabilized) (UniProt P78371) | 4.34 | 3.56 |
| IMPDH2 (effect direction: stabilized) (UniProt P12268) | 3.26 | 3.62 |
| PEX1 (effect direction: stabilized) (UniProt O43933) | 3.98 | 3.72 |
| RHEB (effect direction: stabilized) (UniProt Q15382) | 3.28 | 4.45 |
| MCM4 (effect direction: stabilized) (UniProt P33991) | 3.88 | 3.86 |
| RUVBL2 (effect direction: stabilized) (UniProt Q9Y230) | 4.33 | 3.77 |
| UniProt Q6XQN6 (effect direction: stabilized) | 4.21 | 3.93 |
| RAB2B (effect direction: stabilized) (UniProt Q8WUD1) | 3.45 | 4.52 |
| TP53RK (effect direction: stabilized) (UniProt Q96S44) | 3.46 | 3.58 |
| IPO7 (effect direction: stabilized) (UniProt O95373) | 3.44 | 3.57 |
| GNL1 (effect direction: stabilized) (UniProt P36915) | 2.8 | 4.04 |

| Target | pEC50 [1] | pEC50 [2] |
| --- | --- | --- |
| BCS1L (effect direction: stabilized) (UniProt Q9Y276) | 4.07 | < 3.3 |
| ARPC2 (effect direction: stabilized) (UniProt O15144) | 4.06 | 3.83 |
| UniProt P68363 (effect direction: stabilized) | 2.98 | 3.88 |
| GNAI2 (effect direction: stabilized) (UniProt P04899) | 2.85 | 4.51 |
| FAR1 (effect direction: stabilized) (UniProt Q8WVX9) | 3.36 | 3.59 |
| DHX15 (effect direction: stabilized) (UniProt O43143) | 3.9 | 3.93 |
| GALK1 (effect direction: stabilized) (UniProt P51570) | 4.02 | 4.06 |
| UniProt P61086 (effect direction: stabilized) | 4.05 | 3.76 |
| UCK2 (effect direction: stabilized) (UniProt Q9BZX2) | 3.28 | 3.9 |
| GMPPB (effect direction: stabilized) (UniProt Q9Y5P6) | 3.2 | 3.82 |
| TUBG1 (effect direction: stabilized) (UniProt P23258) | 3.17 | 4.06 |
| MCM6 (effect direction: stabilized) (UniProt Q14566) | 4.05 | 3.98 |
| UniProt Q01130 (effect direction: stabilized) | 3.23 | 3.56 |
| GNAI3 (effect direction: stabilized) (UniProt P08754) | < 2.7 | 4.36 |
| PAK4 (effect direction: stabilized) (UniProt O96013) | 4.07 | 3.44 |
| PRKCB (effect direction: stabilized) (UniProt P05771) | 3.44 | 3.86 |
| SET (effect direction: stabilized) (UniProt Q01105) | 3.06 | 3.71 |
| EHD1 (effect direction: stabilized) (UniProt Q9H4M9) | 3.88 | 4.34 |
| ACTR3 (effect direction: stabilized) (UniProt P61158) | 4.25 | 3.93 |
| MTHFD1 (effect direction: stabilized) (UniProt P11586) | 3.71 | 3.95 |
| BPNT1 (effect direction: destabilized) (UniProt O95861) | < 2.7 | 3.59 |
| MCM2 (effect direction: stabilized) (UniProt P49736) | 3.58 | 4.06 |
| DNM1L (effect direction: stabilized) (UniProt O00429) | 3.38 | 3.83 |
| THUMPD1 (effect direction: stabilized) (UniProt Q9NXG2) | 3.08 | 3.86 |

Other lines, results leading:

| pEC50 [1] | pEC50 [2] | Target |
| --- | --- | --- |
| 3.3 | 3.72 | DGKA (effect direction: stabilized) (UniProt P23743) |
| 3.49 | 3.82 | ABCB7 (effect direction: stabilized) (UniProt O75027) |
| 4.11 | 4.26 | EEF1A1 (effect direction: stabilized) (UniProt P68104) |
| 3.54 | 3.83 | HSPA4L (effect direction: stabilized) (UniProt O95757) |
| 4.2 | 3.96 | ABCF1 (effect direction: stabilized) (UniProt Q8NE71) |
| 3.53 | 4.35 | UniProt Q15286 (effect direction: stabilized) |
| 4.19 | 4.08 | PRKCQ (effect direction: stabilized) (UniProt Q04759) |
| 4.08 | 4.08 | UniProt O00442 (effect direction: stabilized) |
| 3.88 | 3.77 | CAMK4 (effect direction: stabilized) (UniProt Q16566) |
| 3.42 | 4.08 | UniProt P62070 (effect direction: stabilized) |
| 4.15 | 4.51 | RAB8A (effect direction: stabilized) (UniProt P61006) |
| 3.58 | 3.91 | CNP (effect direction: stabilized) (UniProt P09543) |
| 4.18 | 3.71 | IARS2 (effect direction: stabilized) (UniProt Q9NSE4) |
| 4.22 | 4.37 | ATP13A1 (effect direction: stabilized) (UniProt Q9HD20) |
| 4.18 | 3.89 | AFG3L2 (effect direction: stabilized) (UniProt Q9Y4W6) |
| 3.41 | 4.71 | NUBP2 (effect direction: stabilized) (UniProt Q9Y5Y2) |
| 3.97 | 3.69 | HARS (effect direction: stabilized) (UniProt P12081) |
| 4.24 | 3.81 | GIMAP6 (effect direction: stabilized) (UniProt Q6P9H5) |
| 3.19 | 3.44 | ATL3 (effect direction: stabilized) (UniProt Q6DD88) |
| 3.66 | 4.33 | UniProt P61106 (effect direction: stabilized) |
| 4.09 | 3.83 | DHX38 (effect direction: stabilized) (UniProt Q92620) |
| 3.55 | 4.47 | RAB43 (effect direction: stabilized) (UniProt Q86YS6) |
